In PMC8040053 (ACS Medicinal Chemistry Letters, 2021):

Experiments:
HDAC3 [1] = target: T1, HDAC3 (Homo sapiens, UniProt O15379); test: HDAC3 progress curve analysis / jump dilution; type: biochemical; conditions: HDAC3, linear progress curves
HDAC3 [2] = target: T1, HDAC3; test: HDAC3 inhibition assay; type: biochemical; conditions: for HDAC3 LBE: HDAC3-derived ligand binding efficiency
[3] = Lead profiling panel of 115 biochemical and binding assays at Eurofins Panlabs; conditions: 115-assay panel

T1 sequence (O15379 whole entry): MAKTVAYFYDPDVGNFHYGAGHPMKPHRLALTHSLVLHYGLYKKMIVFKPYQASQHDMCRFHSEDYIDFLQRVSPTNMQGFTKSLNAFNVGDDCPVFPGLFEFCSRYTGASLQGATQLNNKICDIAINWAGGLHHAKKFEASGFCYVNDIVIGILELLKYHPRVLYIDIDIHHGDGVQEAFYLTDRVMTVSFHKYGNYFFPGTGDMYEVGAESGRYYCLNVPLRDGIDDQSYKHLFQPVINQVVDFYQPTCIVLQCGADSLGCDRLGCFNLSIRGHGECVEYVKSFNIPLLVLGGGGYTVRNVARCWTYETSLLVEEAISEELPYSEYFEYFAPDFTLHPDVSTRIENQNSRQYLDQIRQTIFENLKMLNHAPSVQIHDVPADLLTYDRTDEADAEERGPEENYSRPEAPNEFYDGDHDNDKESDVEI
T1 sequence (Q9Y618 1-899 partner limits assumed): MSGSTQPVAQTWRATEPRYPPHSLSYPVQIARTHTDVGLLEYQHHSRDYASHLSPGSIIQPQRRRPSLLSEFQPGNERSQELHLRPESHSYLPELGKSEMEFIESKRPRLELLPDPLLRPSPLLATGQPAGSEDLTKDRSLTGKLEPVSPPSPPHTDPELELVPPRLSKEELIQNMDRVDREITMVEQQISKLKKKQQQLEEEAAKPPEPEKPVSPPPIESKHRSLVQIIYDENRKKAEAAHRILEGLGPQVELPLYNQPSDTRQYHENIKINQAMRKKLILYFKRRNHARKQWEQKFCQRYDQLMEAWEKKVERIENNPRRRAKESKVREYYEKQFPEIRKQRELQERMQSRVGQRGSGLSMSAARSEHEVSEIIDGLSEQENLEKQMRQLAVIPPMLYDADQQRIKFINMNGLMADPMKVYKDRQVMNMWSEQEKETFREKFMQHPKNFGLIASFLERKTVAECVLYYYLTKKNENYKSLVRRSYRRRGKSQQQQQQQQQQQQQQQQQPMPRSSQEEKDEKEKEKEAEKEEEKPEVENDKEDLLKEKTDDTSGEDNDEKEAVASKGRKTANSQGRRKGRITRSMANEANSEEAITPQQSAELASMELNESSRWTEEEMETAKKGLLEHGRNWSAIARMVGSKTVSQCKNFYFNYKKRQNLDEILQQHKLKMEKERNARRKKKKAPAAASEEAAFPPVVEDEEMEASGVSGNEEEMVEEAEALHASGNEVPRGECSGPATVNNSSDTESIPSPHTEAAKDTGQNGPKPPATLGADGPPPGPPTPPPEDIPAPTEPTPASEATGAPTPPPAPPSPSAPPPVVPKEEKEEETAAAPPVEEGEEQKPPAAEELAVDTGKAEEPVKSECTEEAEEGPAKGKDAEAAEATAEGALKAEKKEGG

Structure (SMILES) | inhibition kinetics mechanism (HDAC3 [1]) | HDAC3 LBE (HDAC3 [2]) | selectivity for HDAC inhibition over off-target hits [3] | IC50 (HDAC3 [2]; read-out: HDAC3 IC50, Table 3)
CCCC[C@H](NC(=O)C1CN(C)C1)c1ncc(-c2cc3ccccc3nc2OC)[nH]1 [Compound 12] | fast-on/fast-off kinetics |  |  | 
CCCC[C@H](NC(=O)[C@H](C)c1c(C)[nH]c2ccc(O)cc12)c1ncc(-c2cc3ccccc3nc2OC)[nH]1 [Compound 19] | fast-on/fast-off kinetics | 0.25 | 10–1000 fold | 
CCCC[C@H](NC(=O)[C@H](C)c1c(C)[nH]c2ccc(OC)cc12)c1ncc(-c2cc3ccccc3nc2OC)[nH]1 [Compound 20] |  | 0.25 |  | 
CCCC[C@H](NC(=O)[C@H](CN)c1c(C)[nH]c2ccc(OC)cc12)c1ncc(-c2cc3ccccc3nc2OC)[nH]1 [Compound 21] |  |  |  | 18 nM
